Measurements taken from US20050208511A1, “DMBT1 as a clinical marker and uses thereof” (priority 2003, published 2005).

What was measured:
DMBT1 [1] = assay: Northern analysis of DMBT1 expression in rat uterus; assay type: in vivo, Sprague Dawley rats; conditions: for DMBT1 expression on coadministration with estrone: 70 μg/kg/day estrone + 1 mg/kg/day compound, relative to estrone alone (FIG. 3A); for DMBT1 expression increase in uterine tissue: compound alone, oral, three days, estrone 70 μg/kg/day, others 1 mg/kg/day (FIG. 2)
Protocol: (§1) Ten groups of 22-day-old female Sprague Dawley rats (three animals per group) were used to evaluate the effects of estrone, tamoxifen, raloxifene, and ICI 182780 on DMBT1 expression in the uterus. The following groups of rats were treated for three days as follows:
(§2) All treatments were delivered orally in 0.5% Methocel. After treatment the animals were euthanized and the uteri were collected, weighed, frozen in liquid nitrogen, and stored at −20° C. RNA was purified from the frozen uteri using 1.0 mL of TRIzol Reagent (Invitrogen) and a PowerGen 25 tissue homogenizer (Fisher Scientific), according to the manufacturer's instructions.
Northern analysis was performed to determine gene expression, including DMBT1 expression, in the uterus of control and treated rats. For gel electrophoresis, samples containing 2 μg of total RNA in a volume of 2 μL of water were added to 6 microliters of formaldehyde loading dye (Ambion) and incubated at 65° C. for 20 minutes. One microliter of a 0.1 mg/ml ethidium bromide solution was then added to each sample. […] The RNA was transferred to a Hybond-N membrane (Amersham) for […] by capillary transfer blotting, using 10×SSC (0.15 M Sodium citrate, pH 7.0, 1.5 M NaCl), after which the membranes were stained with ethidium bromide, destained with water, and photographed for lane loading comparison. The membranes were then air-dried and kept at room temperature until hybridization.
A glycerol stock of a bacterial clone carrying a plasmid (pINCY) containing the rat ebnerin (DMBT1) gene was obtained from Incyte Genomics (ID#: 0000101155000011). […] One colony was selected and used to inoculate 200 mL of Lennox L Broth (Sigma)+50 μg/mL ampicillin (Sigma). The liquid culture was grown overnight at 37° C. and the bacteria were collected by centrifugation. Purification of plasmid DNA was carried out using a QIAfilter plasmid maxi kit (QIAgen) according to the manufacturer's instructions.
Purified pINCY/DMBT1 was treated with the restriction enzymes EcoRI and NotI (Promega) for the preparation and isolation of a 1,174 bp DNA fragment containing the ebnerin probe (DMBT1). The products of the restriction enzyme reaction were separated by electrophoresis on a 1× TAE, 1% SeaKem Gold Agarose Reliant gel, and the band corresponding to the 1.174 kb DNA ebnerin clone was excised. The ebnerin DNA probe was purified from the gel slice using a QIAquick Gel Extraction Kit (QIAgen) according to the manufacturer's instructions. Bound DNA was eluted from the QIAgen column with 50 μL of elution buffer. The ebnerin DNA probe in the eluate was quantified by comparison to a DNA standard by gel electrophoresis. The ebnerin DNA probe was then diluted to a final concentration of 25 ng/μL.
Random-primed probe was made from 25 ng of the purified ebnerin DNA using a DECAprime II kit (Ambion) and Redivue α-^32P dATP (10 mCi/mL) (Amersham) according to the manufacturer's instructions, with the exception that the reaction was incubated for 30 minutes at 37° C. After adding EDTA to stop the reaction, the labeled probe was purified using a QIAquick Nucleotide Removal Kit (QIAgen) according to the manufacturer's instructions, with the final volume of eluted probe being 50 μL. Two microliters were counted in a scintillation counter to ensure optimal radionuclide incorporation (>2×10^6 cpm/μL).
The blot membrane as described in section A was wet in 2×SSC buffer (Sigma) for 15 minutes, then pre-hybridized in 10 mL RapidHyb (Amersham) at 65° C. for 20 minutes. The probe was boiled for 10 minutes, and 25 μL was added to 10 mL of RapidHyb, pre-warmed to 65° C. The blot membrane was added to the diluted probe solution and incubated, with rotation, in a hybridization oven for approximately 10 hours.
The membrane was removed from the probe-containing solution and rinsed twice with 2×SSPE +0.5% SDS+0.5% pyrophosphate at room temperature, and then washed once, with gentle agitation, for 30 minutes at room temperature in the same solution.

uterus = assay: uterine weight in 22-day-old female rats; assay type: in vivo, Sprague Dawley rats; conditions: oral
Protocol: as §1, §2
In rats, uteri increase in size under the proliferative influence of estrogen, and this increase in size can be measured by weighing the tissues.
Administration of the treatments and collection of tissue samples were carried out according to the procedure described in Example 2. RNA was purified, blotted and hybridized to radioactively labeled rat ebnerin cDNA as in described in Example 2.

DMBT1 [2] = assay: quantitative RT-PCR of DMBT1 in uterus of ovariectomized rats; assay type: in vivo, Wistar rats; conditions: OVX rats, co-treatment with ethinyl estradiol (FIG. 3B)
Protocol: Six weeks old ovariectomized Wistar rats (Charles River, Wilmington, Mass.) were dosed for either one day or six weeks with vehicle or test compounds. All treatments were delivered orally, once daily, in 0.5% methylcellulose or sesame oil. After treatment, the uteri were removed, total RNA was purified from the tissues using TRIzol reagent (Invitrogen, Carlsbad, Calif.) as directed by the manufacturer.
Quantitative reverse transcription-polymerase chain reactions (RT-PCR) of DMBT1 from rat RNA samples were carried out using a One-Step RT-PCR Master Mix Kit (Applied Biosystems, Foster City, Calif.) and an ABI Prism 7000 Sequence Detection System (Applied Biosystems), as described by the manufacturer. Commercially available primers and FAM-labeled MGB probes for human and rat DMBT1 (catalog numbers Hs00244827_ml and Rn00575705_ml, respectively) were obtained from Applied Biosystems (Foster City, Calif.). Messenger RNA levels were normalized against 18S ribosomal RNA levels determined using primers and a VIC- and TAMRA-labeled probe from the same vendor.

endometrium = assay: average endometrial thickness in treated monkeys; assay type: in vivo, cynomolgus monkeys (Macaca fascicularis); conditions: 19 days
Text: (§3) Adult female cynomolgus monkeys (Macaca fascicularis) were obtained from Covance Research Products. Following one complete menstrual cycle and in the follicular phase of the subsequent menstrual cycle, the animals were ovariectomized by a mid-ventral laparotomy. Ovariectomized (OVX) animals were subject to estrogen treatment after the fourth week following ovariectomy.
Animals and treatment were the same as Example 1 with the following exceptions. To study the effect of PRMs on the endometrium and gene expression, groups of three ovariectomized (OVX) monkeys were given an estrogen implant (E2), plus daily oral doses of the following PRMs for 19 days: mifepristone at 10 mg/kg/d; 17N11-DE (17β-N-substituted-11β-dimethylaminophenyl-estra-4,9-dien-3-one) 1.0, 3.0, or 10 mg/kg/d; 17N11-PE (17β-N-substituted-11β-piperidinylphenyl-estra-4,9-dien-3-one) at 1.0, 3.0, or 10 mg/kg/d. A placebo (0.5% methylcellulose) was administered as a control. 17N11-DE and 17N11-PE are two PRMs that have been described in PCT Publication No. WO 99/62928. Tissue samples were taken from endometria and myometria for histological analysis.

luminal epithelium = luminal epithelium thickening in rat uterus sections; assay type: in vivo, Wistar rats; conditions: OVX rats dosed six weeks, compared to sham and ovariectomized control; estrogen = ethinyl estradiol
Protocol: Mature, six week-old ovariectomized or sham-operated Wistar rats (Charles River) were dosed with ethinyl estradiol, tamoxifen or raloxifene for six weeks. Uteri were removed, sectioned for immunohistochemical analysis for DMBT1 expression using a polyclonal goat antibody against the human protein.
Tissues were trimmed and processed for paraffin embedding according to conventional methods. Five-micron sections were cut, mounted onto SuperFrost Plus+(Fisher Scientific, Pittsburgh, Pa.) microscopic slides and dried overnight. The protocols for routine single immunohistochemistry (IHC) have been described previously (D'Andrea et al., 2001, Biotechnic Histochem. 76:97-106). Briefly, tissue sections on microscopic slides were dewaxed and re-hydrated. Slides were microwaved for 5 min in Target buffer (Dako, Carpenturia, Calif.), cooled, placed in phosphate-buffered saline (PBS, pH 7.4) and treated with 3% (v/v) H2O2 for 10 min at room temperature. All incubations (30 min each) and washes were performed at room temperature. Normal rabbit blocking serum (Vector Labs, Burlingame, Calif.) was placed on all slides for 10 min. After a brief rinse in PBS, sections were treated with goat polyclonal DMBT1 primary antibody (1:25, Hypromatrix, Worcester, Mass.). Slides were then washed in PBS and treated with rabbit anti-goat biotinylated secondary antibodies (Vector Labs). After washing in PBS, the avidin-biotin-horseradish peroxidase complex reagent (HRP, Vector Labs) was added. All slides were washed and treated with 3,3′-diaminobenzidine (DAB, Biomeda, Foster City, Calif.) two times for 5 min each, rinsed in distilled water, and counterstained with hematoxylin.

monkey endometrium = assay: DNA microarray gene expression profile (regulated gene identifiers) in endometrium of ovariectomized monkeys; assay type: in vivo, cynomolgus monkeys (Macaca fascicularis); conditions: Ovx/E2 vs Ovx/Placebo
Text: as §3
(§4) Following this period, the OVX monkeys were euthanized and tissue biopsies were taken from endometria of the monkeys treated with estrogen and the placebo. (Details of the endometrial features in OVX monkeys and OVX+estrogen-treated monkeys is described in Example 4.) The biopsies were placed in sterile containers, snap frozen immediately in liquid nitrogen, and stored at −80° C. until processed. Total RNA was prepared from each endometrial tissue biopsy, as described below.
Total RNA was prepared from endometrial tissue biopsies (approximately 50 mg each) using RNAzol™ (Tel-Test, Friendswood, Tex.), as follows. Two milliliters of RNAzol™ were used per 100 mg of tissue. Tissues were homogenized for 2 to 3 minutes using a Tissue Tearor homogenizer (Model No. 985-370; BioSpec Products, Bartlesville, Okla.), then transferred to a glass mortar bowl. The tissues were ground with at least 10 strokes of the pestle until a clear suspension was obtained. […]

DMBT1 [3] = assay: DNA microarray analysis of DMBT1 expression in endometrium of ovariectomized monkeys; assay type: in vivo, cynomolgus monkeys (Macaca fascicularis); conditions: OVX monkeys, estrogen implant 19 days vs Ovx/Placebo, endometrium, microarray
Text: as §3, §4
Total RNA was prepared from endometrial tissue biopsies (approximately 50 mg each) using RNAzol™ (Tel-Test, Friendswood, Tex.), as follows. Two milliliters of RNAzol™ were used per 100 mg of tissue. Tissues were homogenized for 2 to 3 minutes using a Tissue Tearor homogenizer (Model No. 985-370; BioSpec Products, Bartlesville, Okla.), then transferred to a glass mortar bowl. The tissues were ground with at least 10 strokes of the pestle until a clear suspension was obtained. The homogenates were transferred to a polypropylene conical flask, to which 0.1 mL of chloroform per 1 mL of homogenate was added. The mixtures were then shaken vigorously for 1 minute. The suspensions were then transferred to a 2 mL microcentrifuge tube and centrifuged for 15. minutes at 12000 g and at 4° C. in a fixed angle rotor using a Biofuge 17R centrifuge (Baxter, Deerfield, Ill.). The aqueous phase was carefully transferred to a new microcentrifuge tube. An equal volume of isopropanol was added to the aqueous phase, mixed gently, and incubated at 4° C. for 15 minutes. RNA was pelleted by centrifuging the mixture for 15 minutes at 12000 g and at 4° C. as described above. The supernatant was removed and the pellet washed with 75% (v/v) ethanol (Pharmco Products, Brookfield, Conn.), followed by centrifugation at 7500 g for 8 minutes at 4° C. The supernatant was removed, and then the RNA pellet was air-dried briefly and resuspended in RNase-free water (Promega, Madison, Wis.). The samples were then treated with Amplification Grade RNase-free DNase I to remove any residual DNA (Invitrogen, Carlsbad, Calif.). Specifically, twenty micrograms of RNA were treated in a reaction volume of 0.1 mL, containing 1× DNase I reaction buffer and 10 units of DNase I. The reaction continued at room temperature for 15 minutes. […]

[4] = estrogen-stimulated endometrium (C)

## C[C@]12CC[C@@H]3c4ccc(O)cc4C[C@@H](CCCCCCCCC[S+]([O-])CCCC(F)(F)C(F)(F)F)[C@H]3[C@@H]1CC[C@@H]2O (some centres unmarked) [ICI 182780]
DMBT1 [1]; 1 mg/kg/day
  DMBT1 expression on coadministration with estrone: moderately lowered
DMBT1 [1]; listed as ICI 182,780, 1 mg/kg/day
  DMBT1 expression on coadministration with estrone: inhibited
DMBT1 [1]
  DMBT1 expression increase in uterine tissue: undetectable levels
uterus; 70 μg/kg/day estrone + 1 mg/kg/day compound, three days (FIG. 1)
  uterine weight on co-treatment with estrone: approximately between that of estrone (E) and ICI 182780 (1) treatments alone
uterus; compound alone, three days, estrone 70 μg/kg/day, others 1 mg/kg/day, vs control (FIG. 1)
  uterine weight: significant decrease in uterine weight

## C[C@]12CC[C@@H]3c4ccc(O)cc4CC[C@H]3[C@@H]1CCC2=O [estrone]
DMBT1 [1]
  DMBT1 expression increase in uterine tissue: ~5 fold

## CC(=O)O[C@]1(C(C)=O)CC[C@H]2[C@@H]3C[C@H](C)C4=CC(=O)CC[C@]4(C)[C@H]3CC[C@@]21C [medroxyprogesterone acetate]
DMBT1 [2]
  effect on ethinyl estradiol-induced increase in DMBT1 mRNA levels: blocked the increase in mRNA levels in a dose-dependent manner

## estrogen
endometrium; Ovx/E2/Vehicle
  Endometrial Thickness (mm): 3.03 mm
endometrium; [4]
  endometrial thickness relative to chemically castrated endometrium (B): 2.5 times
  endometrial thickness relative to ovariectomized control (A): seven to eight times thicker
Luminal epithelium
  thickening of the luminal epithelium: expected thickening of the luminal epithelium
Monkey endometrium
  PR gene regulation by estrogen: threefold up-regulation
  insulin-like growth factor binding protein 3 gene regulation by estrogen: tenfold down-regulation
DMBT1 [3]
  expression of DMBT1 up-regulated: 37 fold
